Starred links: 1 amine or outer side, 2 acyl side, 3 side chain; linkers in the order of their positions; H or OH if unused. Positions of bridges follow the written chain, without caps; N, C: chain ends. Non-standard residues stand in square brackets, D forms with d. Residues, ends and D or L forms follow the SMILES beside them. *: point of attachment. Leu(3R-OH,Nα-propionyl) = CCC(=O)N[C@H](C(=O)*)[C@H](O)C(C)C; X1 = CC(C)[C@@H](O[*:3])[C@H](N[*:1])C(=O)[*:2]; X2 = CC(C)[C@H](O[*:3])[C@@H](N[*:1])C(=O)[*:2]; NMeaThr = CN[C@H](C(=O)O)[C@H](C)O; dPhLac = O=C(O)[C@H](O)Cc1ccccc1; NMeA = CN[C@@H](C)C(=O)O; NMeDha = C=C(NC)C(=O)O
Assays:
[1] = tested on: constitutively active Gα13; assay: SRE(L) promoter-driven transcriptional reporter; assay type: cell-based; conditions: driven by constitutively active Gα13
Source text: (§1) (FIG. 1A-1C) depicts the effect of FR on the activity state of Gα subunits as determined by interaction with Gβγ or RGS domains in split luciferase complementation assays. FIG. 1A Effect of FR on interaction of Gβγ2 with the indicated wild type (WT) or mutant constitutively active (Q/L) forms of Gα (q) or Gα13 (13). * p<0.01; ** p<0.05. FIG. 1B Potency of FR as a driver of interaction of Gβγ2 with wild type or mutant constitutively active Gαq. FIG. 1C Potency of FR as inhibitor of interaction of RGS2 with mutant constitutively active (Q/L) Gαq, or interaction of the RGS domain of LARG (LARG-RGS) with mutant constitutively active Gα13. FIG. 1D Potency of FR as inhibitor of signal transduction by constitutively active Gαq or Gα13 detected with an SRE(L) promoter-driven transcriptional reporter. Constitutively active Gαq (Q/L), constitutively active Gαq bearing the indicated FR binding site mutations, and constitutively Gα13 (Q/L) were studied.
(§2) Assays of transcriptional reporters driven by YAP or Gα subunits were performed as described (42, 43). YAP- or Ga-driven firefly luciferase activity was normalized to Renilla luciferase expressed from a constitutive promoter.

[2] = tested on: constitutively active Gαq bearing FR binding site mutations; assay: SRE(L) promoter-driven transcriptional reporter; assay type: cell-based; conditions: read-out: IC50, inhibition of transcriptional reporter induction
Source text: as §1, §2

[3] = tested on: constitutively active Gαq; assay: SRE(L) promoter-driven transcriptional reporter; assay type: cell-based; conditions: driven by constitutively active Gαq; FIG. 1D; read-out: IC50, inhibition of transcriptional reporter induction
Source text: as §1, §2

Gαi/q = assay: In vitro nucleotide exchange (BODIPY-GTPγS fluorescence); assay type: biochemical; conditions: FIG. 2B
[4] = tested on: BRAF(V600E)-driven OCM-1A cells; assay: IP1 accumulation in UM cells (IP-One kit); assay type: cell-based, Human; conditions: FIG. 3B
Source text: Inhibition of signaling by constitutively active Gαq in UM cultured cell lines was quantified by measuring intracellular inositol 1-phosphate (IP1), a metabolically stable product of inositol 1,4,5-trisphosphate produced by Gαq-stimulated phospholipase Cβ. FIG. 3A Basal IP1 levels in UM cell lines driven by constitutively active Gαq (92.1 and Mel202) and BRAF (OCM-1A). FIG. 3B Effects of FR on IP1 levels in 92.1, Mel202 and OCM-1A cells. *p<0.01.
A third UM cell line (OCM-1A) driven by constitutively active BRAF(V600E) served as a negative control. Signaling by Gαq-stimulated phospholipase Cβ was quantified based on levels of inositol monophosphate (IP1), a metabolically stable product of inositol 1,4,5-trisphosphate (IP3) produced by cleavage of phosphatidylinositol 4,5-bisphosphate (PIP2). […] FR reduced IP1 levels in Mel202 and 92.1 cells >50-fold (FIG. 3B), but had only modest effect (˜2-fold) on OCM-1A cells (FIG. 3B).
Accumulation of IP1 in UM cells was measured using the IP-One kit (CiSbio, Inc; catalog number 62IPAPEB) according to the supplier's instructions. 10,000 Mel 202 cells, 20,000 92.1 cells and 20,000 OCM 1A cells were seeded into white-bottom tissue culture grade 384-well plates. Following an overnight incubation, cells were treated with FR or DMSO and returned to the incubator. […] Plates were read in a Synergy H4 Hybred Reader (BioTek, Winooski, Vt., USA). […]

OCM-1A cells [5] = assay: YAP-driven transcriptional reporter; assay type: cell-based, Human; conditions: FIG. 6B
Experimental: Expression data from two experimental replicates are mean-centered; the color gradient corresponds to difference in log 2 ratio of expression from the mean, such that 0.5 versus −0.5 is a total difference of 2-fold in unlogged expression.
as §2

Mel202 cells [6] = assay: qPCR validation of FR target genes; assay type: cell-based, Human; conditions: FR-treated Mel202 cells; FIG. 10
Experimental: More important, 42% of genes in this cluster are known targets of the polycomb repressive complex 2 (PRC2) during differentiation from embryonic stem cells (FIG. 7D and Table 5), as indicated by gene set enrichment analysis.
92.1 UM cells were treated with 100 nM FR or vehicle (DMSO) in RPMI growth medium and collected after 1 and 3 d of treatment. RNA was isolated using the RNeasy Mini Kit (Qiagen) following the manufacturer's protocol and including the optional DNase I treatment step. RNA quality was assessed on a Bioanalyzer 2100 (Agilent Technologies, Santa Clara, Calif., USA). mRNA was extracted from total RNA using a Dynal mRNA Direct kit, fragmented and reverse transcribed to double stranded cDNA with random primers before addition of adapters for library preparation. Library preparation and HiSeq2500 sequencing were performed by the Washington University Genome Technology Access Center (gtac.wustl.edu). FastQ files were aligned to the transcriptome and the whole-genome with STAR. Biologic replicates were simultaneously analyzed by edgeR and Sailfish analyses of gene-level/exon-level features. […] Significant gene sets from GSEA analyses were combined such that genes associated with multiple related signatures were only counted once and each gene was assigned only to a single combined groupbased on the signature with the highest enrichment score for that gene. […]

Mel202 UM cells = assay: UM cell viability, water-soluble tetrazolium salt assay; conditions: Homo sapiens, Mel202, read-out: EC50, inhibition of proliferation (viability)
Experimental: (§3) Cells were cultured at 37.0 in 5% CO2. […] Cell lines were grown in RPMI 1640 medium (Life Technologies, Carlsbad, Calif.) supplemented with 10% FBS and antibiotics. Cell viability was measured using a water-soluble tetrazolium salt, WTS-8 (Bimake, Houston, Tex.), following the manufacturer's protocol. Flow cytometry for analysis of cell proliferation and apoptosis was performed at the Siteman Cancer Center Flow Cytometry Core on a FACScan analyzer (BD Biosciences, San Diego Calif., USA) using a standard propidium iodide staining protocol as described previously (44).

OCM-1A cells [7] = assay: as above; conditions: even at high concentration (10 μM)
Experimental: as §3

Mel202 cells [8] = assay: Flow cytometry of DNA content (proliferation and apoptosis); conditions: 3 d, FIG. 4C-D
Experimental: as §3

SMILES: C=C1C(=O)N[C@@H](C)C(=O)N(C)[C@@H](C)C(=O)N[C@H]([C@@H](OC(=O)[C@@H](NC(=O)CC)[C@H](O)C(C)C)C(C)C)C(=O)N(C)[C@@H]([C@H](C)OC)C(=O)O[C@H](C(C)C)[C@H](NC(C)=O)C(=O)O[C@H](Cc2ccccc2)C(=O)N1C [FR, [(1S)-1-[(3S,6R,9S,12S,18R,21S,22R)-21-acetamido-18-benzyl-3-[(1S)-1-methoxyethyl]-4,9,10,12,16-pentamethyl-15-methylidene-2,5,8,11,14,17,20-heptaoxo-22-propan-2-yl-1,19-dioxa-4,7,10,13,16-pentazacyclodocos-6-yl]-2-methylpropyl] (2S,3R)-3-hydroxy-4-methyl-2-(propanoylamino)pentanoate] (Ac-[X1][dPhLac][NMeDha]A[NMeA][X2](Leu(3R-OH,Nα-propionyl))[NMeaThr](Me); ester 1-C)
- effect on expression of the transcriptional reporter [1]: no effect
- IC50 [2]: 30 to 70 nM
- IC50 [3]: 1 nM
- in vitro nucleotide exchange (Gαi/q): inhibited
- effect on IP1 levels [4]: ~2 fold
- effect on YAP-driven transcriptional reporter (OCM-1A cells [5]): no effect
- RNA-Seq downregulation results checked by quantitative RT-PCR (Mel202 cells [6]): confirmed
- EC50 (Mel202 UM cells): 6 nM
- effect on proliferation (OCM-1A cells [7]): no effect
- apoptosis (sub-G1/G0 cells) (Mel202 cells [8]): increased levels of sub-G1/G0 cells
- cell cycle inhibition (decreased levels of S- and G2/M-phase cells) (Mel202 cells [8]): induced cell cycle inhibition

Source: patent US20230130103A1, “TARGETED PHARMACOLOGICAL THERAPEUTICS IN UVEAL MELANOMA” (Washington University, priority 2017, published 2023)
